Patent US9452994B2, “Manufacturing process for pyrimidine derivatives” (Novartis AG, priority 2010, dated 2016)

Assay: moisture uptake of solid forms at given relative humidity
Assay type: physicochemical

Cl.Nc1cc(C(F)(F)F)c(-c2cc(N3CCOCC3)nc(N3CCOCC3)n2)cn1.O [5-(2,6-Di-4-morpholinyl-4-pyrimidinyl)-4-(trifluoromethyl)pyridin-2-amine monohydrate monohydrochloride]
moisture uptake (75% relative humidity): 4.4% | moisture uptake (95% relative humidity): 4.9%

5-(2,6-Di-4-morpholinyl-4-pyrimidinyl)-4-trifluoromethylpyridin-2-amine hemihydrate
moisture uptake (25% relative humidity): 1.9%

Nc1cc(C(F)(F)F)c(-c2cc(N3CCOCC3)nc(N3CCOCC3)n2)cn1 [5-(2,6-Di-4-morpholinyl-4-pyrimidinyl)-4-trifluoromethylpyridin-2-amine]
moisture uptake (85% relative humidity): 8.9%

Cl.Nc1cc(C(F)(F)F)c(-c2cc(N3CCOCC3)nc(N3CCOCC3)n2)cn1 [5-(2,6-Di-4-morpholinyl-4-pyrimidinyl)-4-(trifluoromethyl)pyridin-2-amine monohydrochloride]
hygroscopicity (in words): only slightly hydroscopic | maximum moisture uptake (25° C., up to 92% relative humidity): less than 0.1%
